EP0094245A2, “Dihydronaphthyridine derivatives, their preparation and compositions containing them” (SANKYO COMPANY LIMITED, priority 1982, dated 1983)

Key:
[1] = test system: Male Wistar rats; assay: Carrageenin oedema test for anti-inflammatory activity; format: in vivo; conditions: Rattus norvegicus, po, inhibitory rate, 100 mg/kg per os, paw volume 3 hours after carrageenin injection
Experimental: Details of certain of the pharmacological tests are as follows: • Carrageenin oedema test for anti-inflammatory activity
Male Wistar rats weighing 120-150 g were fasted overnight and then received a test compound per os as an aqueous tragacanth suspension. 30 minutes later, inflammation was induced by the subcutaneous injection of 0.05 ml of a 1% carrageenin suspension into the plantar tissue of a hind paw of each rat [Winter et al., Proc. Soc. Exp. Biol. Med., 111, 544 (1962)]. The anti-oedema activity was measured volumetrically, by assessing the response, as calculated from the following equation: [formula] where Vo and V represent, respectively, the paw volume immediately before and 3 hours after the carrageenin injection. The test compounds were administered at a dose of 100 mg/kg and the results are reported in the following Table as the inhibitory rate, that is the percentage inhibition of the […].

[2] = test system: Male Wistar rats; assay: Pain test for analgesic activity (modified Randall-Selitto, Brewers' yeast inflamed paw); format: in vivo; conditions: po; number of effective animals / total number of animals in group; 50 mg/kg orally; pain threshold 1 and 2 hours after administration; effective = at least twice mean pain threshold of controls
Experimental: Pain test for analgesic activity
This test was conducted according to a modification of the method reported by L.O. Randall and J.J. Selitto in Arch. Int. Pharmacodyn., 11, 409 (1959), proposed by Winter and Flatake (1957).
Male Wistar rats of 4 weeks of age and weighing 60-90 g were injected with 0.1 ml of a 20% by weight suspension of Brewers' yeast in the right hind paw. […] Each of these was given orally a test compound as an aqueous tragacanth suspension at a dose of 50 mg/kg. 1 and 2 hours after administration of the test compound, the pain threshold was determined by observing pain responses (such as struggling or squeaking) when the inflamed or normal paw was subjected to pressure by a machine (Ugo-Basile). […] The results are reported as the number of effective animals as a proportion of the total number of animals in each group.

SMILES	inhibition in vivo at 100 mg/kg [1] [%]	responders at 50 mg/kg [2] [%]
COc1ccc2c(n1)C(C)=CC(C)(C)N2 [Compound No. 1, 6-methoxy-2,2,4-trimethyl-1,2-dihydro-1,5-naphthyridine]	62.6	60
CCOc1ccc2c(n1)C(C)=CC(C)(C)N2 [Compound No. 2, 6-ethoxy-2,2,4-trimethyl-1,2-dihydro-1,5-naphthyridine]	58.2	20
CCCCOc1ccc2c(n1)C(C)=CC(C)(C)N2 [Compound No. 4, 6-butoxy-2,2,4-trimethyl-1,2-dihydro-1,5-naphthyridine]	65.4	60
CC1=CC(C)(C)Nc2ccc(Oc3ccccc3)nc21 [Compound No. 5, 2,2,4-trimethyl-b-phenoxy-1,2-dihydro-1,5-naphthyridine]	53.6	60
CC1=CC(C)(C)Nc2ccc(Cl)nc21 [Compound No. 13, 6-chloro-2,2,4-trimethyl-1,2-dihydro-1,5-naphthyridine]	56.6	60
COc1ccc2c(n1)C(C)=CC(C)(C)N2C [Compound No. 25, 6-methoxy-1,2,2,4-tetramethyl-1,2-dihydro-1,5-naphthyridine]	54.8	40
COc1ccc2c(n1)C(C)=CC(C)(C)N2C(C)=O [Compound No. 27, 1-acetyl-6-methoxy-2,2,4-trimethyl-1,2-dihydro-1,5-naphthyridine]	53.3	20
CC1=CC(C)(C)Nc2ccc(Oc3cccnc3)nc21 [compound 18, 2,2,4-trimethyl-6-(3-pyridyloxy)-1,2-dihydro-1,5-naphthyridine]	76	80
